The target in this assay is T1, FUT2 (Homo sapiens, UniProt Q10981).
T1 construct: purchased Bio-Techne (Minneapolis, MN)
T1 sequence (Q10981 1-343): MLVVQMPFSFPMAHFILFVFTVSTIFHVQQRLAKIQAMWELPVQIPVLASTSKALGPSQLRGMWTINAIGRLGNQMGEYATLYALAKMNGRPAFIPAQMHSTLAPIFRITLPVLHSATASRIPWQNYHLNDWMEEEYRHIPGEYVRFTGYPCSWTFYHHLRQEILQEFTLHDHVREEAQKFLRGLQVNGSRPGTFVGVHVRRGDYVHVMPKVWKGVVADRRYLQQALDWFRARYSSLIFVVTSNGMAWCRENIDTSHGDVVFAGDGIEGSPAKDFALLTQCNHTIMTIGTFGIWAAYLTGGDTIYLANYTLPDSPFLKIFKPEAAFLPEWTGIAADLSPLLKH
Put plainly: Fluorescent labeling with fluorophore-conjugated fucose by FUT2. Type of assay: biochemical. The arrangement: key to Tolerance of the fluorophore by FUT2: +++: indicated by number of + signs; ++: indicated by number of + signs; indicated by number of + signs. Conditions: for Tolerance of the fluorophore by FUT2: fluorophore-conjugated fucose donor, acceptor terminal Gal of lactosamine, fluorescent intensity of labeled fetuin or asialofetuin in FIG. 9. The procedure: FIG. 9A-FIG. 9B show exemplary results of probing substrate glycans of various fucosyltransferases on fetuin and asialofetuin. FIG. 9A. Probing substrate glycans of fucosyltransferases with guanosine 5′-diphosphate activated Cy5 conjugated fucose (GDP-Cy5-Fuc). […] FUT9 labeled itself (indicated by an arrow in the gel). FIG. 9B. Tolerance of Alexa-Fluor®555 (555), Alexa-Fluor®488 (488), and Cy5 by the indicated fucosyltransferases. All reactions were incubated at 37° C. for 30 minutes and then separated on SDS-PAGE and imaged with silver staining (upper panels) and fluorescent imager (lower panels). M, molecular marker.
For a typical labeling reaction, 1 μg to 5 μg target protein was mixed with 0.2 nmol GDP-f-Fuc and 0.2 μg of a fucosyltransferase in 30 μL buffer of 25 mM Tris pH 7.5, 10 mM MnCl2. The mixture was incubated at 37° C. for 30 minutes. The reaction was then separated by sodium dodecyl sulfate—polyacrylamide gel electrophoresis (SDS-PAGE) and the gel was directly imaged using a fluorescent imager FluorChem M ProteinSimple, Bio-Techne, Minneapolis, MN), followed by imaging with traditional protein imaging methods such as silver staining or trichloroethanol (TCE) staining.
The four enzymes tolerated the three fluorophores to different levels.

For “guanosine 5′-diphosphate activated Alexa-Fluor®488 conjugated fucose [GDP-AF488-Fuc]”, the “Tolerance of the fluorophore by FUT2” value is on record as “+”.

Turning to “guanosine 5′-diphosphate activated Alexa-Fluor®555 conjugated fucose [GDP-AF555-Fuc]”, the “Tolerance of the fluorophore by FUT2” value is listed as “+++”. Moreover, the “Fluorophore preference of FUT2” value (among Cy5-, AlexaFluor® 488-, and AlexaFluor® 555-conjugated fucoses, FIG. 9B) is listed as “preferred”.

Values taken from patent publication US20240168030A1, “DIRECT FLUORESCENT GLYCAN LABELING” (BIO-TECHNE CORPORATION, priority 2019, published 2024).
